The values below come from US8802235B2, “Drug and imaging agent delivery compositions and methods” (priority 2012, dated 2014).

For one data set, the system named is MDA-MB-468 cells. Nature of the data set: Cell growth inhibition (resazurin blue), MDA-MB-468. In kind it is cell-based, human. The note with it: 72 hours. How it is done: (§1) Cell growth inhibition was determined in 96-well plates (3,000 cells/well in 100 μL, 12 replicates/sample) using highly invasive human breast cancer cells, MDA-MB-231, non-metastatic human breast cancer cells, MDA-MB-468, and highly invasive human head and neck squamous cell cancer cells positive for epithelia growth factor receptor, MDA-1986. Drug or conjugate solutions were applied after 24 hours, and 72 hours post-addition, resazurin blue in 10 μL of PBS was applied to each well (final concentration 5 μM).

The subject of a further data set is MDA-MB-231 cells. Put plainly: Cell growth inhibition (resazurin blue), MDA-MB-231. Type of data set: cell-based, human. The note with it: 72 hours. How it is done: as §1
Data set [1] has as its system MDA-1986 cells. Put plainly: Nitric oxide release (Griess) in cell culture with MDA-1986 cells. In kind it is cell-based, human. The method, then: The fluorescence intensity was measured between 520 and 550 nm using a fluorescence microplate reader.
The concentration of nitrite, the stable breakdown product of gaseous nitric oxide, was measured using Griess assay as an indirect measurement of nitric oxide concentration in cell culture media. The assay is based on the reaction between sulfanilamide, N-1-napthyethylenediamine dihydrochloride and nitrite, under acidic conditions to produce a […] azo compound.

Data set [2] concerns MDA-1986 cells. Put plainly: Cell growth inhibition (resazurin blue), MDA-1986. In kind it is cell-based, human. The following applies: 72 hours. The method, then:
as §1

In data set [3] the test system is MCF-7 cells.
Data set [4] relates to MCF-7 cells. Put plainly: Cell growth inhibition (resazurin blue), MCF-7. The following applies: 72 hours after drug addition. In kind it is cell-based, human. The method, then: Plates were seeded with 3,000 cells/well in 100 μL of media (12 replicates/sample). Drug or conjugate solutions were applied after 24 hours. […] The in vitro anti-proliferative activities of cisplatin, NO-donating prodrug, and their star polymer-based conjugates, including acid-Pt, acid-NO, and combinational acid-Pt/acid-NO were evaluated in cell culture using a human breast cancer cell line, MCF-7. […] The acid-Pt appeared to be less cytotoxic than cisplatin in the cells. This is likely due to the slow release of the active drug, which was not unexpected for a sustained-delivery platform. One of the obstacles that has not yet been overcome in infusion chemotherapy is the poor tumor penetration and accumulation of small-molecule anti-cancer agents. Usually the majority of the chemotherapeutics have been cleared from systemic circulation, via the kidneys, before a significant concentration of the anti-cancer agent is achieved in the tumorigenic tissues. However, the acid-Pt and acid-NO nanoconjugates may greatly enhance the intratumoral drug concentration compared to the normal tissues due to the Enhanced Permeability and Retention effect (EPR), in which nanoformulations tend to penetrate tumors more effectively via leaky, fenestrated tumor blood vessels. […]

On to `O=[N+]([O-])c1ccc(ON=[N+]([O-])N2CCN(CCOCCO)CC2)c([N+](=O)[O-])c1` [NO1, O^2-(2,4-Dinitrophenyl) 1-{[4-(2-(2-hydroxyethoxy))ethyl]piperazin-1-yl}diazen-1-ium-1,2-diolate], for which the IC50 in the data set on MDA-MB-468 cells amounted to 26 ± 4 µM; in the data set on MDA-MB-231 cells it was 32 ± 3 µM; in the data set with MDA-1986 cells [2], 33 ± 1 µM; in the data set with MCF-7 cells [4] it was 48 ± 28 µM. Besides, the “Release half-life” value was 7.1 h with MDA-1986 cells [1] and 7.4 h in the data set with MCF-7 cells [3].
